Assay results published in patent US9358247B2, “Methods and compositions for promoting activity of anti-cancer therapies” (Oncology Research International Limited, priority 2006, dated 2016).
pIC50: −log10 of the molar value.

Legend:
HT29 human cells = assay: In vivo tumour volume, HT29 cells subcutaneously introduced into mice, 5-fluorouracil and deltonin; design: species or system Balb/c nude female mice
Source text: 5-Fluorouracil (5FU) is the principal chemotherapeutic drug used in treating colon cancer; it is most commonly co-administered with other chemotherapeutic agents. This study compared the co-administration of 5-fluoruracil and deltonin, with administration of mono-administration of both 5-fluorourcil and deltonin.
72 female Balb/c nude female mice were microchipped, weighed and randomised based on body weight into 8 groups with 9 mice per group. […]
HT29 human […] carcinoma cells were cultured in RPMI1640 cell culture medium, which was supplemented with 10% FBS and penicillin-streptomycin (50 IU/mL final concentration). The cells were harvested by trypsinisation, washed twice in HBSS and counted. The cells were then resuspended in HBSS and adjusted to a final volume containing 2×10^7 cells/mL. For inoculation, the needle was introduced through the skin into the subcutaneous space just below the right shoulder, where 100 μL of cells (2×10^6) were discharged.
When the tumour volumes had reached an average of greater than 200 mm^3, treatment was started (Day 0). Tumour volumes were measured 3-times weekly, and determined according to the formula: V(mm^3)=length×diameter^2×π/6
Treatment was continued for 17 days. The mean tumour volumes for each dosage regime are given in Table 24 and are presented graphically in FIG. 1: […]

MCF7 cell line = assay: Cancer cell growth inhibition, SRB dye assay (single agents and 50:50 IC50 mixtures); type: cell-based, human
Protocol: (§1) Cancer cells were seeded the day before application of drug in triplicate or quadruplicate in 96-well plates, allowed to grow in the presence of drug for 6 days before cell growth relative to untreated control wells was determined with a dye assay. Cells were seeded in triplicate or quadruplicate at 3-4,000 per microtitre well in 90 μl of RPMI culture medium/10% foetal calf serum/penicillin, streptomycin mix, treated with 10 μl of drug (prepared in a dilution plate at 10× concentration required), and allowed to grow until the controls were nearly confluent (6 days). SRB: Plates were washed with PBS, fixed with methylated spirits, washed with tap water and stained with 50 μL/well of SRB solution (sulforhodamine, 0.4% in 1% acetic acid), followed by washing with tap water and 1% acetic acid, solubilisation in Tris and absorbance read at 564 nm in an ELISA reader. Data was collected using ELISA plate reader software—SOFTmax PRO3.1.2, then imported into EXCEL. The mean and SD of replicates were calculated as a % of control, after subtraction of the blank value (wells with no cells). A graph was plotted of % control vs dose of agent and IC50 (half maximal inhibitory concentration) values determined. […] The cells were allowed to grow until the controls were nearly confluent after 5-6 days. Plates were then washed with PBS, fixed in ethanol and stained with 50 μL/well of SRB solution (sulforhodamine, 0.4% in 1% acetic acid), followed by washing with 1% acetic acid and solubilisation in Tris. The absorbance was read at 564 nm using an ELISA reader. […] Cambridge University Press). […] The inhibitory data from each mixture was used to determine an IC50 of IC50 value, where the concentrations used were the Multiplying Factor values. In order to determine the actual IC50 contribution of each component in the two-component mixture, the IC50 of IC50 value was multiplied by the IC50 of the individual component. This can then be used to determine the reduction in IC50 contribution (ie, reduction in dose) of the chemotherapeutic agent due to the presence of the steroid saponin in the mixture. A simpler way of determining the reduction in dose is to use the following simple formula: […]

LNCap cell line = assay: as above; type: cell-based, human
Protocol: as §1

[1] = 50:50 IC50 mixture vs vincristine alone, Example 3
[2] = Homo sapiens, 144 h, Example 3, value used to make up 50:50 IC50 mixtures, read-out: IC50 values used in assay

Question: How did the Mean tumour volume (HT29 human cells; Deltonin 1.65 mg/kg daily, Day 0) turn out when `C[C@@H]1CC[C@@]2(OC1)O[C@H]1C[C@H]3[C@@H]4CC=C5C[C@@H](O[C@@H]6O[C@H](CO)[C@@H](O[C@@H]7O[C@H](CO)[C@@H](O)[C@H](O)[C@H]7O)[C@H](O)[C@H]6O[C@@H]6O[C@@H](C)[C@H](O)[C@@H](O)[C@H]6O)CC[C@]5(C)[C@H]4CC[C@]3(C)[C@H]1[C@@H]2C` [Deltonin, diosgenin Rha2, [Glc4], Glc] was run?
Answer: 236 mm^3

Question: And the Mean tumour volume (HT29 human cells; Deltonin 1.65 mg/kg daily, Day 2)?
Answer: 260 mm^3

Question: And the Mean tumour volume (HT29 human cells; Deltonin 1.65 mg/kg daily, Day 4)?
Answer: 299 mm^3

Question: And the Mean tumour volume (HT29 human cells; Deltonin 1.65 mg/kg daily, Day 7)?
Answer: 294 mm^3

Question: What about the Mean tumour volume (HT29 human cells; Deltonin 1.65 mg/kg daily, Day 9) of the same compound?
Answer: 350 mm^3

Question: What about the Mean tumour volume (HT29 human cells; Deltonin 1.65 mg/kg daily, Day 11) of the same compound?
Answer: 462 mm^3

Question: What about the Mean tumour volume (HT29 human cells; Deltonin 1.65 mg/kg daily, Day 14) of the same compound?
Answer: 594 mm^3

Question: What about the Mean tumour volume (HT29 human cells; Deltonin 1.65 mg/kg daily, Day 16) of the same compound?
Answer: 644 mm^3

Question: What about the Mean tumour volume (HT29 human cells; Deltonin 1.65 mg/kg daily, Day 18) of the same compound?
Answer: 776 mm^3

Question: And the Mean tumour volume (HT29 human cells; Deltonin 3.3 mg/kg daily, Day 0)?
Answer: 236 mm^3

Question: What about the Mean tumour volume (HT29 human cells; Deltonin 3.3 mg/kg daily, Day 2) of the same compound?
Answer: 242 mm^3

Question: And the Mean tumour volume (HT29 human cells; Deltonin 3.3 mg/kg daily, Day 4)?
Answer: 271 mm^3

Question: And the Mean tumour volume (HT29 human cells; Deltonin 3.3 mg/kg daily, Day 7)?
Answer: 331 mm^3

Question: And the Mean tumour volume (HT29 human cells; Deltonin 3.3 mg/kg daily, Day 9)?
Answer: 413 mm^3

Question: What about the Mean tumour volume (HT29 human cells; Deltonin 3.3 mg/kg daily, Day 11) of the same compound?
Answer: 489 mm^3

Question: What about the Mean tumour volume (HT29 human cells; Deltonin 3.3 mg/kg daily, Day 14) of the same compound?
Answer: 558 mm^3

Question: And the Mean tumour volume (HT29 human cells; Deltonin 3.3 mg/kg daily, Day 16)?
Answer: 742 mm^3

Question: What about the Mean tumour volume (HT29 human cells; Deltonin 3.3 mg/kg daily, Day 18) of the same compound?
Answer: 842 mm^3

Question: And the Mean tumour volume (HT29 human cells; Deltonin 6.6 mg/kg daily, Day 0)?
Answer: 235 mm^3

Question: And the Mean tumour volume (HT29 human cells; Deltonin 6.6 mg/kg daily, Day 2)?
Answer: 233 mm^3

Question: What about the Mean tumour volume (HT29 human cells; Deltonin 6.6 mg/kg daily, Day 4) of the same compound?
Answer: 265 mm^3

Question: What about the Mean tumour volume (HT29 human cells; Deltonin 6.6 mg/kg daily, Day 7) of the same compound?
Answer: 310 mm^3

Question: And the Mean tumour volume (HT29 human cells; Deltonin 6.6 mg/kg daily, Day 9)?
Answer: 399 mm^3

Question: And the Mean tumour volume (HT29 human cells; Deltonin 6.6 mg/kg daily, Day 11)?
Answer: 490 mm^3

Question: And the Mean tumour volume (HT29 human cells; Deltonin 6.6 mg/kg daily, Day 14)?
Answer: 588 mm^3

Question: What about the Mean tumour volume (HT29 human cells; Deltonin 6.6 mg/kg daily, Day 16) of the same compound?
Answer: 671 mm^3

Question: And the Mean tumour volume (HT29 human cells; Deltonin 6.6 mg/kg daily, Day 18)?
Answer: 692 mm^3

Question: And the “Vincristine Dose Reduction” value (MCF7 cell line; [1])?
Answer: consistent reduction in dosage

Question: What about the pIC50 (MCF7 cell line; [2]) of the same compound?
Answer: 6.00

Question: What about the “Vincristine Dose Reduction” value (LNCap cell line; [1]) of the same compound?
Answer: consistent reduction in dosage

Question: What about the pIC50 (LNCap cell line; [2]) of the same compound?
Answer: 6.00
